Measurements published in patent publication US20110207726A1, “Inhibitors of Human Cathepsin L, Cathepsin B, and Cathepsin S” (The Trustees of the University of Pennsylvania, priority 2008, published 2011).
Where two headings read alike, the source gives them in different places.

Biological target: T1, Papain from Carica papaya (Carica papaya, UniProt P00784)
T1 construct: Papain from Carica papaya (Calbiochem 5125, 11 ng/mL); purchased Calbiochem 5125; host or cells: Carica papaya
Assay: Selectivity assay, papain
Format: biochemical
Conditions: for IC50: Papain, no preincubation
Method: Compound No. 1 was assayed for inhibition against papain and cathepsins B, G, K, S, and V. Papain from Carica papaya (Calbiochem 5125, 11 ng/mL), human cathepsin K (Calbiochem 342001, 35 ng/mL), human spleen cathepsin S (Calbiochem 219344, 40 ng/mL), and human cathepsin V (Calbiochem 219467, 39 ng/ml) were assayed using Z-Phe-Arg-AMC substrate at 20 μM, 20 μM, 15 μM, and 1 μM, respectively. Human liver cathepsin B (Calbiochem 219362, 65 ng/mL) was assayed using 15 μM Z-Arg-Arg-AMC substrate (Bachem I-1135). Human neutrophil cathepsin G (Calbiochem 219373, 4.2 μg/mL) was assayed using 15 μM Suc-Ala-Ala-Pro-Phe-AMC substrate (Sigma S9761). All reactions were performed in 20 mM sodium acetate buffer containing 5 mM cysteine and 1 mM EDTA, pH 5.5. Reaction progress was monitored using the Envision microplate reader. IC50 values were measured in triplicate.

T1 sequence (P00784 134-345): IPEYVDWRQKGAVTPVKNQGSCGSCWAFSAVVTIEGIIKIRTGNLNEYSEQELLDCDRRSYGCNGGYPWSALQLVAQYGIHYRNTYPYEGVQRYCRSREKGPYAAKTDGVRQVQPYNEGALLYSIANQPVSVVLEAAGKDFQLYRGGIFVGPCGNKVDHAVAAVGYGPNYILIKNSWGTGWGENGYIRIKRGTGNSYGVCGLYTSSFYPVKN

With `CCc1ccccc1NC(=O)CSC(=O)NNC(=O)[C@H](Cc1c[nH]c2ccccc12)NC(=O)OC(C)(C)C` [Compound No. 1] the IC50 (IC50 @ 10 min, Carica papaya, 10 min) was 6760 ± 367 nM, the “Selectivity Index @ 10 min” value (Papain vs cathepsin L, 10 min) was 44 and the “Selectivity Index @ 30 min” value (Papain vs cathepsin L, 30 min) was 40. The “Selectivity Index @ 60 min” value (Papain vs cathepsin L, 60 min) was 46, the “Selectivity Index @ 90 min” value (Papain vs cathepsin L, 90 min) was 31 and the “Selectivity Index” value (Papain vs cathepsin L, over 10-90 min) was 31-46. It also gave an IC50 (30 min, read-out: IC50 @ 30 min) of 2980 ± 282 nM, an IC50 (60 min, read-out: IC50 @ 60 min) of 2600 ± 208 nM and an IC50 (90 min, read-out: IC50 @ 90 min) of 1560 ± 314 nM.
